Data from PubChem BioAssay AID2060908 (Molecular Pharmacology Branch, DTP, NCI, 2025).

System: 186277-243-T-J2-PDC complex spheroids, viability
Assay: Anticancer human tumor 186277-243-T-J2-PDC patient-derived colon adenocarcinoma cell line growth inhibition [RAS]
Conditions: for IC50: curve of first compound; for viability, T/C: stronger effect = lower value
How it was run: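 Tumour cells grown as complex spheroids with HUVEC endothelial cells and mesenchymal stem cells, treated with RAS pathway inhibitor combinations. Each agent spans half-log steps from near clinical Cmax, or 10 microM where Cmax is unknown.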

[1] = second compound 0.0316 µM, first compound 0.0316 µM
[2] = second compound 0.0316 µM, first compound 0.1 µM
[3] = second compound 0.0316 µM, first compound 0.316 µM
[4] = second compound 0.0316 µM, first compound 1 µM
[5] = second compound 0.1 µM, first compound 0.0316 µM
[6] = second compound 0.1 µM, first compound 0.1 µM
[7] = second compound 0.1 µM, first compound 0.316 µM
[8] = second compound 0.1 µM, first compound 1 µM
[9] = second compound 0.316 µM, first compound 0.0316 µM
[10] = second compound 0.316 µM, first compound 0.1 µM
[11] = second compound 0.316 µM, first compound 0.316 µM
[12] = second compound 0.316 µM, first compound 1 µM
[13] = second compound 1 µM, first compound 0.0316 µM
[14] = second compound 1 µM, first compound 0.1 µM
[15] = second compound 1 µM, first compound 0.316 µM
[16] = second compound 1 µM, first compound 1 µM
[17] = second compound 3.16 µM, first compound 0.0316 µM
[18] = second compound 3.16 µM, first compound 0.1 µM
[19] = second compound 3.16 µM, first compound 0.316 µM
[20] = second compound 3.16 µM, first compound 1 µM
[21] = second compound 10 µM, first compound 0.0316 µM
[22] = second compound 10 µM, first compound 0.1 µM
[23] = second compound 10 µM, first compound 0.316 µM
[24] = second compound 10 µM, first compound 1 µM
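Note: spheroids exposed to compounds for 7 days before viability read.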

SMILES: C=CC(=O)N1CCN(c2nc(OCC3CCCN3C)nc3c(F)c(-c4nc(N)cc(C)c4C(F)(F)F)c(Cl)cc23)C(C)C1 (stereo unspecified) + C#Cc1c(F)ccc2cc(O)cc(-c3ncc4c(N5CC6CCC(C5)N6)nc(OCC56CCCN5CC(F)C6)nc4c3F)c12
- IC50 (second compound 0.0316 µM): > 1000 nM
- IC50 (second compound 0.1 µM): 325 nM
- IC50 (second compound 0.316 µM): < 3.16 nM
- IC50 (second compound 1 µM): < 3.16 nM
- IC50 (second compound 3.16 µM): < 3.16 nM
- IC50 (second compound 10 µM): < 3.16 nM
- viability, T/C (second compound 0.0316 µM, first compound 0.00316 µM): 75.1%
- viability, T/C (second compound 0.0316 µM, first compound 0.01 µM): 97.6%
- viability, T/C [1]: 84.3%
- viability, T/C [2]: 78.3%
- viability, T/C [3]: 79.5%
- viability, T/C [4]: 54.6%
- viability, T/C (second compound 0.1 µM, first compound 0.00316 µM): 69.6%
- viability, T/C (second compound 0.1 µM, first compound 0.01 µM): 73.7%
- viability, T/C [5]: 60.4%
- viability, T/C [6]: 58.4%
- viability, T/C [7]: 53.1%
- viability, T/C [8]: 35.8%
- viability, T/C (second compound 0.316 µM, first compound 0.00316 µM): 24.2%
- viability, T/C (second compound 0.316 µM, first compound 0.01 µM): 35.7%
- viability, T/C [9]: 37.8%
- viability, T/C [10]: 25.2%
- viability, T/C [11]: 33.2%
- viability, T/C [12]: 24.2%
- viability, T/C (second compound 1 µM, first compound 0.00316 µM): 18.1%
- viability, T/C (second compound 1 µM, first compound 0.01 µM): 19.1%
- viability, T/C [13]: 19.1%
- viability, T/C [14]: 18.6%
- viability, T/C [15]: 19%
- viability, T/C [16]: 15.5%
- viability, T/C (second compound 3.16 µM, first compound 0.00316 µM): 9.97%
- viability, T/C (second compound 3.16 µM, first compound 0.01 µM): 14.1%
- viability, T/C [17]: 12.5%
- viability, T/C [18]: 13.3%
- viability, T/C [19]: 15.5%
- viability, T/C [20]: 10.9%
- viability, T/C (second compound 10 µM, first compound 0.00316 µM): 8.29%
- viability, T/C (second compound 10 µM, first compound 0.01 µM): 9.21%
- viability, T/C [21]: 11.5%
- viability, T/C [22]: 11%
- viability, T/C [23]: 11.3%
- viability, T/C [24]: 8.56%

SMILES: CC(=O)OC12COC1CC(O)C1(C)C(=O)C(O)C3=C(C)C(OC(=O)C(O)C(NC(=O)OC(C)(C)C)c4ccccc4)CC(O)(C(OC(=O)c4ccccc4)C21)C3(C)C (stereo unspecified) + C#Cc1c(F)ccc2cc(O)cc(-c3ncc4c(N5CC6CCC(C5)N6)nc(OCC56CCCN5CC(F)C6)nc4c3F)c12
- IC50 (second compound 0.0316 µM): < 31.6 nM
- IC50 (second compound 0.1 µM): < 31.6 nM
- IC50 (second compound 0.316 µM): < 31.6 nM
- IC50 (second compound 1 µM): < 31.6 nM
- IC50 (second compound 3.16 µM): < 31.6 nM
- IC50 (second compound 10 µM): < 31.6 nM
- viability, T/C [1]: 5.3%
- viability, T/C [2]: 5.14%
- viability, T/C [3]: 5.59%
- viability, T/C [4]: 4.15%
- viability, T/C (second compound 0.0316 µM, first compound 3.16 µM): 5.04%
- viability, T/C (second compound 0.0316 µM, first compound 10 µM): 4.9%
- viability, T/C [5]: 6.01%
- viability, T/C [6]: 5.73%
- viability, T/C [7]: 4.94%
- viability, T/C [8]: 4.03%
- viability, T/C (second compound 0.1 µM, first compound 3.16 µM): 5.26%
- viability, T/C (second compound 0.1 µM, first compound 10 µM): 3.53%
- viability, T/C [9]: 5.77%
- viability, T/C [10]: 4.92%
- viability, T/C [11]: 4.48%
- viability, T/C [12]: 4.42%
- viability, T/C (second compound 0.316 µM, first compound 3.16 µM): 4.75%
- viability, T/C (second compound 0.316 µM, first compound 10 µM): 5%
- viability, T/C [13]: 4.79%
- viability, T/C [14]: 5.04%
- viability, T/C [15]: 4.17%
- viability, T/C [16]: 4.69%
- viability, T/C (second compound 1 µM, first compound 3.16 µM): 5.21%
- viability, T/C (second compound 1 µM, first compound 10 µM): 4.15%
- viability, T/C [17]: 3.84%
- viability, T/C [18]: 4.36%
- viability, T/C [19]: 4.81%
- viability, T/C [20]: 3.94%
- viability, T/C (second compound 3.16 µM, first compound 3.16 µM): 4.59%
- viability, T/C (second compound 3.16 µM, first compound 10 µM): 3.53%
- viability, T/C [21]: 4.68%
- viability, T/C [22]: 3.75%
- viability, T/C [23]: 4.17%
- viability, T/C [24]: 4.45%
- viability, T/C (second compound 10 µM, first compound 3.16 µM): 4.43%
- viability, T/C (second compound 10 µM, first compound 10 µM): 3.61%

SMILES: CCc1c2c(nc3ccc(O)cc13)-c1cc3c(c(=O)n1C2)COC(=O)[C@]3(O)CC + C#Cc1c(F)ccc2cc(O)cc(-c3ncc4c(N5CC6CCC(C5)N6)nc(OCC56CCCN5CC(F)C6)nc4c3F)c12
- IC50 (second compound 0.0316 µM): 2.64 nM
- IC50 (second compound 0.1 µM): < 0.949 nM
- IC50 (second compound 0.316 µM): < 0.949 nM
- IC50 (second compound 1 µM): < 0.949 nM
- IC50 (second compound 3.16 µM): < 0.949 nM
- IC50 (second compound 10 µM): < 0.949 nM
- viability, T/C (second compound 0.0316 µM, first compound 0.000949 µM): 72.5%
- viability, T/C (second compound 0.0316 µM, first compound 0.003 µM): 40.5%
- viability, T/C (second compound 0.0316 µM, first compound 0.00949 µM): 36.7%
- viability, T/C (second compound 0.0316 µM, first compound 0.03 µM): 20.9%
- viability, T/C (second compound 0.0316 µM, first compound 0.0949 µM): 8.73%
- viability, T/C (second compound 0.0316 µM, first compound 0.3 µM): 5.87%
- viability, T/C (second compound 0.1 µM, first compound 0.000949 µM): 35.5%
- viability, T/C (second compound 0.1 µM, first compound 0.003 µM): 21.9%
- viability, T/C (second compound 0.1 µM, first compound 0.00949 µM): 16.6%
- viability, T/C (second compound 0.1 µM, first compound 0.03 µM): 12.2%
- viability, T/C (second compound 0.1 µM, first compound 0.0949 µM): 5.42%
- viability, T/C (second compound 0.1 µM, first compound 0.3 µM): 6.04%
- viability, T/C (second compound 0.316 µM, first compound 0.000949 µM): 14.3%
- viability, T/C (second compound 0.316 µM, first compound 0.003 µM): 14.1%
- viability, T/C (second compound 0.316 µM, first compound 0.00949 µM): 9.89%
- viability, T/C (second compound 0.316 µM, first compound 0.03 µM): 7.42%
- viability, T/C (second compound 0.316 µM, first compound 0.0949 µM): 5.03%
- viability, T/C (second compound 0.316 µM, first compound 0.3 µM): 3.68%
- viability, T/C (second compound 1 µM, first compound 0.000949 µM): 7.55%
- viability, T/C (second compound 1 µM, first compound 0.003 µM): 8.61%
- viability, T/C (second compound 1 µM, first compound 0.00949 µM): 8.45%
- viability, T/C (second compound 1 µM, first compound 0.03 µM): 6.92%
- viability, T/C (second compound 1 µM, first compound 0.0949 µM): 4.24%
- viability, T/C (second compound 1 µM, first compound 0.3 µM): 3.83%
- viability, T/C (second compound 3.16 µM, first compound 0.000949 µM): 8.46%
- viability, T/C (second compound 3.16 µM, first compound 0.003 µM): 7.85%
- viability, T/C (second compound 3.16 µM, first compound 0.00949 µM): 7.31%
- viability, T/C (second compound 3.16 µM, first compound 0.03 µM): 5.89%
- viability, T/C (second compound 3.16 µM, first compound 0.0949 µM): 4.55%
- viability, T/C (second compound 3.16 µM, first compound 0.3 µM): 2.75%
- viability, T/C (second compound 10 µM, first compound 0.000949 µM): 6.68%
- viability, T/C (second compound 10 µM, first compound 0.003 µM): 6.39%
- viability, T/C (second compound 10 µM, first compound 0.00949 µM): 6.05%
- viability, T/C (second compound 10 µM, first compound 0.03 µM): 5.42%
- viability, T/C (second compound 10 µM, first compound 0.0949 µM): 3.58%
- viability, T/C (second compound 10 µM, first compound 0.3 µM): 2.72%
